Columns and labels:
[1] = molecular target: Tyrosine-protein kinase BTK (Homo sapiens, UniProt Q06187); test: Inhibition of BTK (unknown origin) after 1 hr by TR-FRET assay
[2] = molecular target: Tyrosine-protein kinase JAK2 (Homo sapiens, UniProt O60674); test: Inhibition of JAK2 (unknown origin) after 1 hr by ELISA based assay
[3] = molecular target: T1, Tyrosine-protein kinase JAK3 (Homo sapiens, UniProt P52333); test: Inhibition of JAK3 (unknown origin) after 1 hr by ELISA based assay
T1 sequence (P52333 whole entry): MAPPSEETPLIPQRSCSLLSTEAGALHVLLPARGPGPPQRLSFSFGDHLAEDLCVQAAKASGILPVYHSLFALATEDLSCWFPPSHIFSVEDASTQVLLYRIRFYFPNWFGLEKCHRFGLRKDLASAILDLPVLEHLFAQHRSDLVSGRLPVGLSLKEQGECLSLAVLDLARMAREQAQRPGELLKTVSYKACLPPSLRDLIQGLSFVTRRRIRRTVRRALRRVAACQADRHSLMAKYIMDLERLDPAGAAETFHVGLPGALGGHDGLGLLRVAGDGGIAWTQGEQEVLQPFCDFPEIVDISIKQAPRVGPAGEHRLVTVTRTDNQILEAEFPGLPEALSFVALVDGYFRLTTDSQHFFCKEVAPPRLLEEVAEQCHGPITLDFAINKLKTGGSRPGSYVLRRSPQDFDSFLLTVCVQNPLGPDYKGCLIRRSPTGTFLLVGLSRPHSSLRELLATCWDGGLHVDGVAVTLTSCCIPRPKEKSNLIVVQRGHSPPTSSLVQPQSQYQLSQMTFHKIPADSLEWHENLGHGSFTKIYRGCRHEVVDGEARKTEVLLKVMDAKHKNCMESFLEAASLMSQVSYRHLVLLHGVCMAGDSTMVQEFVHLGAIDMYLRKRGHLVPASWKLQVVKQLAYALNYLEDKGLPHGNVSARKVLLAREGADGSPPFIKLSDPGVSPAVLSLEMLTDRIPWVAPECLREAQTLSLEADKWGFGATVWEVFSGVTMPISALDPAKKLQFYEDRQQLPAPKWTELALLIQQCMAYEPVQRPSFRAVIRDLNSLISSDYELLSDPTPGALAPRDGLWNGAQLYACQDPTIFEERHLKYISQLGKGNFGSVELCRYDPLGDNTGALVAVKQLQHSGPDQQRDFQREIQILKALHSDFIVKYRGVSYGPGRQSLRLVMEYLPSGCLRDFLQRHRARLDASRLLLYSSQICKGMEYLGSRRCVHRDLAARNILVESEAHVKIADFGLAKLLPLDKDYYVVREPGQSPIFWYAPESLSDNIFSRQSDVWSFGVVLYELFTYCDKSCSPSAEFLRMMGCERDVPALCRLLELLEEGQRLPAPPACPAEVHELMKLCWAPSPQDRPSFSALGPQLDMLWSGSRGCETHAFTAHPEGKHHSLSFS

[4] = molecular target: Hepatocyte growth factor receptor (Homo sapiens, UniProt P08581); test: Inhibition of c-MET (unknown origin) after 1 hr by ELISA based assay
Hepatocyte growth factor receptor, sequence (P08581 whole entry): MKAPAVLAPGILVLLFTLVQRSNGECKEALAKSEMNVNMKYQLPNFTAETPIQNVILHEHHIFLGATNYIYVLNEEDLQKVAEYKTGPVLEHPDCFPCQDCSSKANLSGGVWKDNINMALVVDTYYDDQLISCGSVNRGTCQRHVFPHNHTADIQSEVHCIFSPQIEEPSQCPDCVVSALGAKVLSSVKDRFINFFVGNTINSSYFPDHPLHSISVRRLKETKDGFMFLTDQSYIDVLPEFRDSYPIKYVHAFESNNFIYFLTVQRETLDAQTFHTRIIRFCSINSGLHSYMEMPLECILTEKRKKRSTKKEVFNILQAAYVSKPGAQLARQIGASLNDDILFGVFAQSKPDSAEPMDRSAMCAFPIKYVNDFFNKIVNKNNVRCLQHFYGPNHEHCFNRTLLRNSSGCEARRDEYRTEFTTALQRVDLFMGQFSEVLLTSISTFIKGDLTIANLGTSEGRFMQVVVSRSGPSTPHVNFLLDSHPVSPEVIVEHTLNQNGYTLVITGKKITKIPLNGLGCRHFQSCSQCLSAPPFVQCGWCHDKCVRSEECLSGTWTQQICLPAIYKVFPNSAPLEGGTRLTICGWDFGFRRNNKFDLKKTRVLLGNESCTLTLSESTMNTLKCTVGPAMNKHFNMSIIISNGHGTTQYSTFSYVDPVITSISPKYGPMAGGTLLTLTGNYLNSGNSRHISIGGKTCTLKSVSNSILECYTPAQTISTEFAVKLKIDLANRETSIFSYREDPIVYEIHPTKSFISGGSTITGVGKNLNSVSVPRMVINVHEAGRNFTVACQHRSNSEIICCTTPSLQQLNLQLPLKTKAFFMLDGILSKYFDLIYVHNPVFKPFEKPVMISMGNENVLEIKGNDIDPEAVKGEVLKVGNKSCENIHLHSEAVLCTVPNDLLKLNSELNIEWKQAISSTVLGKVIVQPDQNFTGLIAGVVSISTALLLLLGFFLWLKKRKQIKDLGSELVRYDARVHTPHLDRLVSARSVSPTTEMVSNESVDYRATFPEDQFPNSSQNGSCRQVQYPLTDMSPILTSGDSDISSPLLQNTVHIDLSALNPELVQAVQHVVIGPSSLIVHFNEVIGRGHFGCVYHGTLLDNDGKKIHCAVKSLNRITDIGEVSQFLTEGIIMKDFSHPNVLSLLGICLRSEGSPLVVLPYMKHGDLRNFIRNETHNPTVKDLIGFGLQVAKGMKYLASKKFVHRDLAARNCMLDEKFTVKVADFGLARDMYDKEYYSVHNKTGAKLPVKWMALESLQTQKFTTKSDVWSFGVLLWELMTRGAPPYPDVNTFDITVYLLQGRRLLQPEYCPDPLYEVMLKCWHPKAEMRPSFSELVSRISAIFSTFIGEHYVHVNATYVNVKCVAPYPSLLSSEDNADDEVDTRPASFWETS

[5] = molecular target: Vascular endothelial growth factor receptor 2 (Homo sapiens, UniProt P35968); test: Inhibition of KDR (unknown origin) after 1 hr by ELISA based assay
Vascular endothelial growth factor receptor 2, sequence (P35968 whole entry): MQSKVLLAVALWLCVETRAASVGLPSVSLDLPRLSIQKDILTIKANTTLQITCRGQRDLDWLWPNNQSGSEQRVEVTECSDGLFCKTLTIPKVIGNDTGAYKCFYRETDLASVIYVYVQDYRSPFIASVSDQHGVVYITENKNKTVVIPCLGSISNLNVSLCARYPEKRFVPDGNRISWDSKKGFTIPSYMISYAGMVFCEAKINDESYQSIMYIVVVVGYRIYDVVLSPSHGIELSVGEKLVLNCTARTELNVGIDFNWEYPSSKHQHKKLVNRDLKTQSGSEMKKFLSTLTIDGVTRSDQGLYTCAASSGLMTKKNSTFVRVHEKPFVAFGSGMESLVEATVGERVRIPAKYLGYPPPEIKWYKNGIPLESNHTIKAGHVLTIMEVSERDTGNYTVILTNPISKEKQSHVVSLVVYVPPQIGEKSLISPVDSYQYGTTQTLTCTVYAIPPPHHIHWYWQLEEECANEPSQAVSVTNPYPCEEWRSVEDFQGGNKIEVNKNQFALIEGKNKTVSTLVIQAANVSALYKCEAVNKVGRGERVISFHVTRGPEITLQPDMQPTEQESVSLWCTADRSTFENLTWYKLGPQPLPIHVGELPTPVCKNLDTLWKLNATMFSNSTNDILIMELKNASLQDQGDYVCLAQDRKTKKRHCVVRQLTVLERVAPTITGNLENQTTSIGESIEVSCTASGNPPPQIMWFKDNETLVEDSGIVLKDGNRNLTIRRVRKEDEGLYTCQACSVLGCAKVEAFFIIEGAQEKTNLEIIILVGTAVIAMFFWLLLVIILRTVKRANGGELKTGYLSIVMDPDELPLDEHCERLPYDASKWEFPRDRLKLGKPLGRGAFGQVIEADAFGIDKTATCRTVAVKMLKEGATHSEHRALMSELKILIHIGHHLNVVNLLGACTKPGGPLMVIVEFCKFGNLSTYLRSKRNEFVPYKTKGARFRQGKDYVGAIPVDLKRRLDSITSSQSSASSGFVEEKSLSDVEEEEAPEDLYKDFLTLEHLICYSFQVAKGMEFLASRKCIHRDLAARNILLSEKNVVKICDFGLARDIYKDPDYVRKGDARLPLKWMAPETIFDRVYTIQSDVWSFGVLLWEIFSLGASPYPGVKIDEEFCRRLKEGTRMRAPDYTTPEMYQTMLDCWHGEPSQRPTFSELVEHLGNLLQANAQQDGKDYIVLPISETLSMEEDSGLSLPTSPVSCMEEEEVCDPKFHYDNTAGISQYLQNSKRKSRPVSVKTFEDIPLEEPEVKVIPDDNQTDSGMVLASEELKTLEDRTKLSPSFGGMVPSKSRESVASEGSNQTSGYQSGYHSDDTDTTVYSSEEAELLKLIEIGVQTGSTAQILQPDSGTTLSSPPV

Tyrosine-protein kinase BTK, sequence (Q06187 whole entry): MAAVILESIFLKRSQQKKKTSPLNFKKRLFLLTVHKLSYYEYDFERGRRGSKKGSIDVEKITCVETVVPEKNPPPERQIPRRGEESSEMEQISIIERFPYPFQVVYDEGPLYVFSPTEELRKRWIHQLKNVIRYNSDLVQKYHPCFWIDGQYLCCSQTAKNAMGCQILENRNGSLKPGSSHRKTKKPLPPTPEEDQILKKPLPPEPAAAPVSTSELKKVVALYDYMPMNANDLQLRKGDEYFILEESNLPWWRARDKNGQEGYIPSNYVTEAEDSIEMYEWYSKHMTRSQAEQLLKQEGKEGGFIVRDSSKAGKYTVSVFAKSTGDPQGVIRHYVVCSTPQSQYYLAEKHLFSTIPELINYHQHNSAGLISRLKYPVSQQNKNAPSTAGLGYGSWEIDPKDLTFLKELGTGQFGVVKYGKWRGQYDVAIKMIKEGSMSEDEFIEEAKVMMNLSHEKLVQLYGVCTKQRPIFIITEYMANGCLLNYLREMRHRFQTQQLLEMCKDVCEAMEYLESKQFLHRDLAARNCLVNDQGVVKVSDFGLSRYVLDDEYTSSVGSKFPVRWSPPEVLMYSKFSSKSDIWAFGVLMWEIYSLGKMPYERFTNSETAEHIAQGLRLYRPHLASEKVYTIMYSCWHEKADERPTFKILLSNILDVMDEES
Tyrosine-protein kinase JAK2, sequence (O60674 whole entry): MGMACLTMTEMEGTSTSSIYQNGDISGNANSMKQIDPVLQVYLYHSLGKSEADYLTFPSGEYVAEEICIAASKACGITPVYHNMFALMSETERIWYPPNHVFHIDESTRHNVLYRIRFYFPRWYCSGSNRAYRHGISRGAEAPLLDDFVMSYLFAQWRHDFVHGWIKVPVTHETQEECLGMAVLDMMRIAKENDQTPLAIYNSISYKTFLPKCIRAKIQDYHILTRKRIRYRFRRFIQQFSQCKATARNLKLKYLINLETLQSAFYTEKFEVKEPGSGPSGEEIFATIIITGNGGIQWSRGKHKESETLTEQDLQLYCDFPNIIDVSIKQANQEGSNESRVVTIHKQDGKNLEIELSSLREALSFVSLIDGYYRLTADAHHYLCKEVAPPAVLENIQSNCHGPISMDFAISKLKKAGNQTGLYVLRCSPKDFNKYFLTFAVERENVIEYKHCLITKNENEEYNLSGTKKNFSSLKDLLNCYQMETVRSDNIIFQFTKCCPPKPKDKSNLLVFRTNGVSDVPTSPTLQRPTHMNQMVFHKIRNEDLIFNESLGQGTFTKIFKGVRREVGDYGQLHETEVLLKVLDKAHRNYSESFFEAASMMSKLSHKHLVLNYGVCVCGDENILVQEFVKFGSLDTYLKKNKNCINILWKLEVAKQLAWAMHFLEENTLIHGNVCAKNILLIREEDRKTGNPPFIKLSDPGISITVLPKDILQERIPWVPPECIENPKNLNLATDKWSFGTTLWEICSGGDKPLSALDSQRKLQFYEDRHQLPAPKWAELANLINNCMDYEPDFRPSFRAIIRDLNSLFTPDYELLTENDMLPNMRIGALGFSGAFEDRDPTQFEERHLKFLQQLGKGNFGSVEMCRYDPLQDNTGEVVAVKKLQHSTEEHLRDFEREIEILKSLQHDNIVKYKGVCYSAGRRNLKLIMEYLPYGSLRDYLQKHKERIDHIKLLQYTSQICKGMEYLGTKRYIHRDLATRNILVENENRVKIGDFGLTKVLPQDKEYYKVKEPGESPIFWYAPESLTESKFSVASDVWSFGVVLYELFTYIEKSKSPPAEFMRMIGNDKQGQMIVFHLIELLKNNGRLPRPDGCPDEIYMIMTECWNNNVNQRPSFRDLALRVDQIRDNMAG

| Compound | IC50 [1] | also measured |
| --- | --- | --- |
| CC(C)(C)OC(=O)N1C=C(c2cnc(N)c3c(-c4ccc(Oc5ccccc5)cc4)csc23)CCC1 | 2870 nM | – |
| C=CC(=O)N1CCCC(c2cnc(N)c3c(-c4ccc(Oc5ccccc5)cc4)csc23)C1 (centres undefined) | 2300 nM | – |
| Nc1ncc(-c2cnn(CC(=O)N3CCCCC3)c2)c2scc(-c3ccc(Oc4ccccc4)cc3)c12 | 12.2 nM | – |
| Nc1ncc(-c2cnn(CC(=O)N3CCOCC3)c2)c2scc(-c3ccc(Oc4ccccc4)cc3)c12 | 11.8 nM | IC50 [2]: 6860 nM; IC50 [3]: 3070 nM; IC50 [4]: 2430 nM; IC50 [5]: 191 nM |
| CS(=O)(=O)OC1CCCN(C(=O)CCn2cc(-c3cnc(N)c4c(-c5ccc(Oc6ccccc6)cc5)csc34)cn2)C1 (centres undefined) | 54.9 nM | – |
| Nc1ncc(C2CCCNC2)c2scc(-c3ccc(Oc4ccccc4)cc3)c12 (centres undefined) | > 10000 nM | – |
| C=CC(=O)n1cc(-c2cnc(N)c3c(-c4ccc(Oc5ccccc5)cc4)csc23)cn1 | 1690 nM | – |
| C=CC(=O)N1C=C(c2cnc(N)c3c(-c4ccc(Oc5ccccc5)cc4)csc23)CCC1 | 343 nM | – |
| CC(=O)Cn1cc(-c2cnc(N)c3c(-c4ccc(Oc5ccccc5)cc4)csc23)cn1 | 7.8 nM | – |
| Nc1ncc(-c2cnn(C3CCCNC3=O)c2)c2scc(-c3ccc(Oc4ccccc4)cc3)c12 (centres undefined) | 9.5 nM | – |
| CNC(=O)CCn1cc(-c2cnc(N)c3c(-c4ccc(Oc5ccccc5)cc4)csc23)cn1 | 25.5 nM | – |
| C=CC(=O)N1CC=C(c2cnc(N)c3c(-c4ccc(Oc5ccccc5)cc4)csc23)CC1 | 183 nM | – |
| CC(C)(C)OC(=O)N1CC=C(c2cnc(N)c3c(-c4ccc(Oc5ccccc5)cc4)csc23)CC1 | 1660 nM | – |
| Nc1ncc(C2CCNCC2)c2scc(-c3ccc(Oc4ccccc4)cc3)c12 | > 10000 nM | – |
| C=CC(=O)NCCn1cc(-c2cnc(N)c3c(-c4ccc(Oc5ccccc5)cc4)csc23)cn1 | 9.9 nM | – |
| Nc1ncc(C2=CCNCC2)c2scc(-c3ccc(Oc4ccccc4)cc3)c12 | 854 nM | – |
| C#CCn1cc(-c2cnc(N)c3c(-c4ccc(Oc5ccccc5)cc4)csc23)cn1 | 7.4 nM | – |
| Nc1ncc(C2=CNCCC2)c2scc(-c3ccc(Oc4ccccc4)cc3)c12 | 3600 nM | – |
| Nc1ncc(-c2cnn(CCC(=O)O)c2)c2scc(-c3ccc(Oc4ccccc4)cc3)c12 | 21 nM | – |
| CNC(=O)CN1C=C(c2cnc(N)c3c(-c4ccc(Oc5ccccc5)cc4)csc23)CCC1 | 456 nM | – |
